# Source: patent publication US20260158046A1, “TREATMENT OF NEURODEGENERATIVE DISORDERS WITH DOXYCYCLINE ALONE OR IN COMBINATION WITH LEVODOPA” (Biohaven Therapeutics Ltd., priority 2023, published 2026)
# How the values were obtained:
# Format in all cases: in vivo, human
# [1] = Case report, Patient A: tolerability of doxycycline; settings: after two additional months on doxycycline
# From the text: (§1) Patient A is a person diagnosed with PD approximately one and a half years earlier and treated with levodopa. […] The patient also experienced intermittent irritable bowel disorder symptoms.
# seborrheic dermatitis = test: Case report, Patient A: seborrheic dermatitis under doxycycline
# From the text: as §1
# PD tremor = test: Case report, Patient A: PD tremor under doxycycline added to levodopa; settings: prior to initiation of doxycycline
# From the text: as §1
Structure (SMILES),adverse event leading to stop of treatment [1],"time to resolution of seborrheic dermatitis (seborrheic dermatitis; PD patient on levodopa, doxycycline 100 mg tablet once a day, first course)",time to recurrence of seborrheic dermatitis after discontinuation (seborrheic dermatitis; doxycycline discontinued after approximately 8 weeks (first de-challenge)),"interval between required levodopa dose increases (worsening PD, most notably tremor) (PD tremor)"
"C[C@H]1c2cccc(O)c2C(=O)C2=C(O)[C@]3(O)C(=O)C(C(N)=O)=C(O)[C@@H](N(C)C)[C@@H]3[C@@H](O)[C@@H]21 [doxycycline, Doxycycline]",nausea,≤ 3 weeks,≤ 2 weeks,–
"N[C@@H](Cc1ccc(O)c(O)c1)C(=O)O [levodopa, Levodopa]",–,–,–,~3 months
